Laboratory results taken from patent US20100279990A1, “ANTIPROLIFERATIVE COMPOUNDS, COMPOSITIONS AND METHODS OF USE” (RAMOT AT TEL-AVIV UNIVERSITY LTD., priority 2006, published 2010).

How the values were obtained:
PAXF PANC1 = assay: Monolayer Assay, PI: PAXF PANC1; format: cell-based, human
Source text: (§1) This example illustrates cell proliferation data in the form of IC50, IC70 and IC90 values obtained by exposure of human cancer cell-lines to compound (Ia). […].

male Balb/C mice = assay: Acute toxicity in male Balb/C mice, ip; format: in vivo
Procedure: This example illustrates acute toxicity data derived from the treatment of male Balb/C mice with different concentrations of compound (Ia). The results are depicted in FIG. 11. Compound (Ia) was administered ip to groups of mice at doses of 10, 20 and 30 mg/kg. Sertraline was also administered to one group at 30 mg/kg. Each group of mice included five animals.
Body weight was determined up to 12 days after drug administration.

[1] = system: CEM/C1 cell-lines (camptothecin resistant human T-cell leukemia); assay: Viability of CEM/C1 cell-line, alamar blue; format: cell-based; details: 1-30 μM
Source text: This cell-line is a camptothecin (CPT) resistant derivative of the human T-cell leukemia purchased from ATCC (USA). […] The results are depicted in FIG. 14. Each point represents the mean+/−SEM of 4 determinations.

XCL A431 = assay: Monolayer Assay, PI: XCL A431; format: cell-based, human
Source text: as §1

LXF 529L = assay: Monolayer Assay, PI: LXF 529L (Lung); format: cell-based, human
Source text: as §1

[2] = system: PHA activated healthy human T cells; assay: PHA induced proliferation of healthy human lymphocytes, alamar blue; format: cell-based
MEXF 394NL = assay: Monolayer Assay, PI: MEXF 394NL (Melanoma); format: cell-based, human
Source text: as §1

[3] = system: human colon carcinoma cells (HT29); assay: cells
[4] = system: human colon carcinoma cells (HT29)
LXF 629L = assay: Monolayer Assay, PI: LXF 629L (Lung); format: cell-based, human
Source text: as §1

GXF 251L = assay: Monolayer Assay, PI: GXF 251L (Gastric); format: cell-based, human
Source text: as §1

[5] = system: Caspase 3 activity of LS1034 human colon MDR carcinoma cells; assay: Caspase-3 activity in LS1034 human colon MDR carcinoma cells; format: cell-based; details: 10 or 20 μM, 4 hr after exposure
Procedure: Caspase 3 activity was measured by an enzymatic fluorimetric method using a fluorigenic substrate (Ac-DEVD-AMC), which produces blue fluorescence detected at 360 nm wavelength. […] When AMC is cleaved from the substrate by caspase-3, and caspase-3-like enzymes, it produces a yellow-green fluorescence, which can be monitored by a fluorimeter at 460 nm. The amount of yellow green fluorescence is proportional to the activity of caspase-3 in the cell extract sample.
Whole cell lysate was added to a buffer containing 100 μM peptide substrate, 100 mM HEPES, 10% glycerol, 1 mM EDTA and 10 mM dithiothreitol. Measurements were taken every 5 min for 80 min. These experiments were also monitored in the presence of a specific caspase-3 inhibitor, DEVD-AMC-CHO, which was added after 45 or 60 min to the reaction mixture, to ascertain the specificity of the enzyme.

MAXF MCF7 = assay: Monolayer Assay, PI: MAXF MCF7 (Breast); format: cell-based, human
Source text: as §1

MAXF 401NL = assay: Monolayer Assay, PI: MAXF 401NL (Breast); format: cell-based, human
Source text: as §1

## CN[C@H]1CC[C@@H](c2ccc(Cl)c(Cl)c2)c2ccc(C#CCCCO)cc21 [compound (Ia), (1S-cis)-4-(3,4-dichlorophenyl)-7-(5-hydroxy-1-pentyn-1-yl)-1,2,3,4-tetrahydro-N-methyl-1-naphthalenamine hydroiodide]
PAXF PANC1; 2.3 μg/ml
  Test/Control (%): 98%
  Test/Control activity class: − (− (T/C = 50))
PAXF PANC1; 7.5 μg/ml
  Test/Control (%): 33%
  Test/Control activity class: + (+ (30 <= T/C < 50))
PAXF PANC1; 23. μg/ml
  Test/Control (%): 3%
  Test/Control activity class: +++ (+++ (T/C < 10))
PAXF PANC1; 75. μg/ml
  Test/Control (%): 4%
  Test/Control activity class: +++ (+++ (T/C < 10))
PAXF PANC1; .75 μg/ml
  Test/Control (%): 105%
  Test/Control activity class: − (− (T/C = 50))
Male Balb/C mice; ip 10, 20 and 30 mg/kg, observed 4 h and after 24 h
  behavioral changes: none of the animals showed any observed change in behavior
Male Balb/C mice; ip 10, 20 and 30 mg/kg, over 12 days
  changes in food intake or body weight: none of the animals exhibited changes in food intake or body weight
Male Balb/C mice; ip, up to 30 mg/kg
  tolerability of acute ip administration: well tolerated
[1]
  IC50: 8.9 µM
XCL A431; 2.3 μg/ml
  Test/Control (%): 94%
  Test/Control activity class: − (− (T/C = 50))
XCL A431; 7.5 μg/ml
  Test/Control (%): 6%
  Test/Control activity class: +++ (+++ (T/C < 10))
XCL A431; 23. μg/ml
  Test/Control (%): 3%
  Test/Control activity class: +++ (+++ (T/C < 10))
XCL A431; 75. μg/ml
  Test/Control (%): 2%
  Test/Control activity class: +++ (+++ (T/C < 10))
XCL A431; .75 μg/ml
  Test/Control (%): 100%
  Test/Control activity class: − (− (T/C = 50))
LXF 529L; 2.3 μg/ml
  Test/Control (%): 97%
  Test/Control activity class: − (− (T/C = 50))
LXF 529L; 7.5 μg/ml
  Test/Control (%): 17%
  Test/Control activity class: ++ (++ (10 <= T/C < 30))
LXF 529L; 23. μg/ml
  Test/Control (%): 3%
  Test/Control activity class: +++ (+++ (T/C < 10))
LXF 529L; 75. μg/ml
  Test/Control (%): 5%
  Test/Control activity class: +++ (+++ (T/C < 10))
LXF 529L; .75 μg/ml
  Test/Control (%): 93%
  Test/Control activity class: − (− (T/C = 50))
[2]
  potency relative to sertraline: about 3 times
[2]; T-cell, 48 hr, alamar blue
  IC50: 9.8 µM
MEXF 394NL; 2.3 μg/ml
  Test/Control (%): 59%
  Test/Control activity class: − (− (T/C = 50))
MEXF 394NL; 7.5 μg/ml
  Test/Control (%): 3%
  Test/Control activity class: +++ (+++ (T/C < 10))
MEXF 394NL; 23. μg/ml
  Test/Control (%): 2%
  Test/Control activity class: +++ (+++ (T/C < 10))
MEXF 394NL; 75. μg/ml
  Test/Control (%): 2%
  Test/Control activity class: +++ (+++ (T/C < 10))
MEXF 394NL; .75 μg/ml
  Test/Control (%): 99%
  Test/Control activity class: − (− (T/C = 50))
[3]; HT-29, read-out: IC50, viability
  IC50: 12.7 µM
[3]; HT-29, read-out: cell viability
  viability at 30 µM: 30.9%
[4]; 10-30 μM, FIG. 2A
  potency compared with paroxetine: higher potency than paroxetine
[4]; equimolar doses, FIG. 2B
  potency compared with paroxetine and fluoxetine: significantly more potent than paroxetine and fluoxetine
LXF 629L; 2.3 μg/ml
  Test/Control (%): 94%
  Test/Control activity class: − (− (T/C = 50))
LXF 629L; 7.5 μg/ml
  Test/Control (%): 4%
  Test/Control activity class: +++ (+++ (T/C < 10))
LXF 629L; 23. μg/ml
  Test/Control (%): 1%
  Test/Control activity class: +++ (+++ (T/C < 10))
LXF 629L; 75. μg/ml
  Test/Control (%): 2%
  Test/Control activity class: +++ (+++ (T/C < 10))
LXF 629L; .75 μg/ml
  Test/Control (%): 99%
  Test/Control activity class: − (− (T/C = 50))
GXF 251L; 2.3 μg/ml
  Test/Control (%): 80%
  Test/Control activity class: − (− (T/C = 50))
GXF 251L; 7.5 μg/ml
  Test/Control (%): 54%
  Test/Control activity class: − (− (T/C = 50))
GXF 251L; 23. μg/ml
  Test/Control (%): 7%
  Test/Control activity class: +++ (+++ (T/C < 10))
GXF 251L; 75. μg/ml
  Test/Control (%): 3%
  Test/Control activity class: +++ (+++ (T/C < 10))
GXF 251L; .75 μg/ml
  Test/Control (%): 90%
  Test/Control activity class: − (− (T/C = 50))
[5]
  caspase-3 activity: dose dependent increase in the activity of caspase-3
MAXF MCF7; 2.3 μg/ml
  Test/Control (%): 67%
  Test/Control activity class: − (− (T/C = 50))
MAXF MCF7; 7.5 μg/ml
  Test/Control (%): 5%
  Test/Control activity class: +++ (+++ (T/C < 10))
MAXF MCF7; 23. μg/ml
  Test/Control (%): 2%
  Test/Control activity class: +++ (+++ (T/C < 10))
MAXF MCF7; 75. μg/ml
  Test/Control (%): 3%
  Test/Control activity class: +++ (+++ (T/C < 10))
MAXF MCF7; .75 μg/ml
  Test/Control (%): 93%
  Test/Control activity class: − (− (T/C = 50))
MAXF 401NL; 2.3 μg/ml
  Test/Control (%): 70%
  Test/Control activity class: − (− (T/C = 50))
MAXF 401NL; 7.5 μg/ml
  Test/Control (%): 9%
  Test/Control activity class: +++ (+++ (T/C < 10))
MAXF 401NL; 23. μg/ml
  Test/Control (%): 3%
  Test/Control activity class: +++ (+++ (T/C < 10))
MAXF 401NL; 75. μg/ml
  Test/Control (%): 3%
  Test/Control activity class: +++ (+++ (T/C < 10))
MAXF 401NL; .75 μg/ml
  Test/Control (%): 103%
  Test/Control activity class: − (− (T/C = 50))
